Reference: US20230074252A1, “DOSAGES AND METHODS FOR TREATING PULMONARY ARTERIAL HYPERTENSION WITH RODATRISTAT” (Altavant Sciences GmbH, priority 2020, published 2023)
Where two headings read alike, the source gives them in different places.

Key:
CYP2C19 = CYP2C19 (Homo sapiens, UniProt P33261); experiment: Direct and time-dependent CYP inhibition, pooled human liver microsomes; assay type: in vitro ADME; set-up: from tissue; host or cells: pooled human liver microsomes (n=200 donors)
Protocol: (§1) “mM^”=millimolar. CYP induction was evaluated using cultured human hepatocytes (from 3 donors) treated once daily for 3 days with RE/R concentrations to […].
The competitive inhibition of specific CYP isoforms was investigated for RVT-1201 and KAR5417 in human liver microsomes (HLM) (XT155056). Of the […] evaluated in vitro (CYP1A2, CYP2B6, CYP2C8, CYP2C9, CYP2D6, CYP3A4, CYP3A5), RVT-1201 IC50 estimates were determined for CYP2B6, CYP2C8 and CYP3A4 only. […] For each IC50 estimate, substrate concentration and Km were used to estimate RVT-1201 and KAR5417 Ki.

CYP3A4 = experiment: CYP mRNA induction, cultured human hepatocytes from 3 donors; assay type: in vitro ADME; conditions: for Highest induction of CYP3A4 by an individual donor / Induction of CYP3A4 mRNA, mean±SD relative to control: 20 μM; for Inducer classification, CYP3A4: clinically relevant concentrations; for In vitro induction parameter Emax, CYP3A4 / EC50: mRNA, human hepatocytes; for EC50: read-out: In vitro induction parameter EC50, CYP3A4; for Calculated R3 Value, CYP3A4: predicted @ 600 mg BID
Protocol: as §1
(§2) CYP induction was evaluated in vitro using cultured human hepatocytes from 3 donors. Rodatristat ethyl and rodatristat caused negligible induction of CYP1A2 (<2% control for the most sensitive responder), CYP2B6 (mean±SD values relative to control of 16.2±20.0% and 15.0±17.9%, respectively), and CYP3A4 (7.1±6.41% and 10.3±11.9%, respectively) mRNA at 20 μM (the highest concentration studied). […] The highest values for induction of CYP2B6 by an individual donor at all concentrations tested were 60.1% and 57.4% at 10 μM for rodatristat ethyl and rodatristat, respectively, and for CYP3A4 were 13.3% and 23.0% at 20 μM, respectively.
(§3) The induction of specific CYP isoforms (CYP1A2, CYP2B6, CYP3A4) was investigated for RVT-1201 and KAR5417 in human hepatocytes (HH) (XT153040). […] CYP2B6 and CYP3A4 mRNA induction by RVT-1201 and KAR5417 (Emax and EC50) were used to estimate the PBPK model parameters Indmax and IndC50. Within the PBPK model, IndC50 is equal to EC50, the concentration of inducer that supports half maximal induction of the CYP isoform (estimated by a sigmoid three parameter fit to in vitro concentration-dependent mRNA induction data). Within the PBPK model, Indmax represents the maximum fold induction relative to incubation with vehicle only (vehicle=1). The reported Emax for RVT-1201 and KAR5417 was estimated by sigmoid three parameter fit to in vitro concentration-dependent mRNA induction data. Baseline activity was set equal to zero, rather than one, therefore reported Emax was increased by adding one to each value to estimate Indmax. CYP2B6 induction data was used in the PBPK model as reported. CYP3A4 induction data was scaled based on the maximum induction by rifampin (at 20 μM). Scaling of CYP3A4 induction using rifampin data from the same system leverages the extensive literature on rifampin induction in vitro and in vivo and allows adjustment of in vitro induction data based on the relative performance of rifampin in each in vitro incubation, and the empirical relationship between rifampin induction of CYP3A4 in vitro and in vivo.

CYP2B6 = experiment: as above; assay type: in vitro ADME; conditions: for Highest induction of CYP2B6 by an individual donor: 10 μM; for Induction of CYP2B6 mRNA, mean±SD relative to control: 20 μM; for Inducer classification, CYP2B6: clinically relevant concentrations; for In vitro induction parameter Emax, CYP2B6 / EC50: mRNA, human hepatocytes; for EC50: read-out: In vitro induction parameter EC50, CYP2B6; for Calculated R3 Value, CYP2B6: predicted @ 600 mg BID
Protocol: as §1, §2, §3

CYP1A2 = experiment: as above; assay type: in vitro ADME; conditions: clinically relevant concentrations
Protocol: as §1, §2, §3

[1] = Predicted plasma Cmax for 600 mg rodatristat ethyl BID (ELEVATE1/ELEVATE2); set-up: species or system human; conditions: for Unbound Cmax: 600 mg BID, conservative 1% free fraction; for Predicted mean maximum plasma concentration (Cmax) / Cmax: 600 mg rodatristat ethyl BID, plasma; for Cmax: read-out: Predicted mean maximum plasma concentration (Cmax)
Protocol: The potential for rodatristat ethyl or rodatristat to be perpetrators of drug-drug interactions was assessed across in vitro CYP and transporter studies (Tables 1-4). […] This analysis was performed to assess the potential for clinically meaningful DDIs as recommended in FDA Draft Guidance: “In Vitro Metabolism- and Transporter-Mediated Drug-Drug Interaction Studies Guidance for Industry”; October 2017 (FDA, 2017).
R1 and R3 values using free (non-protein bound) drug levels were calculated based on plasma protein binding (fraction bound, fb) of rodatristat ethyl (0.995) and rodatristat (0.991). The FDA Guidance is set forth In Vitro Metabolism- and Transporter-Mediated Drug-Drug Interaction Studies Guidance for Industry (2017). […] Parameters for the prediction are set forth below in Tables 5 and 6.

[2] = Clinical pharmacokinetics in healthy subjects (Studies RVT-1201-1001 and KAR5585-101); assay type: in vivo, human
Protocol: Clinical Study RVT-1201-1001 was a single and repeat dose study of RVT-1201 in healthy subjects to evaluate the pharmacokinetic profile of RVT-1201 and its active metabolite KAR5417. In Part 1 of this study, a single oral dose of 400 mg RVT-120 was administered as an oral powder in Regimen A and B, and as immediate release tablets in Regimen C, to 9 healthy male subjects. In addition, a single 1200 mg dose as immediate release tablets was administered in Regimen D.
Following oral administration in the fed state, RVT-1201 was well absorbed and peak plasma levels were achieved after a median time of 2.5 h. […] The planned clinical dose schedule of RVT-1201 in ELEVATE2 is up to 600 mg BID. […] The geometric mean apparent clearance was 900 L/h after oral administration in Regimen C of Clinical Study RVT-1201-1001. Elimination of RVT-1201 was rapid, and primarily facilitated by hydrolysis to KAR5417. Formation of KAR5417 was attributed to de-esterification of RVT-1201.
KAR5417 is rapidly formed after oral administration of RVT-1201.
Data from two clinical studies were used to verify the PBPK model (Clinical Study KAR5585-101 and Clinical Study RVT-1201-1001). Clinical Study KAR5585-101 was a randomized, double blind, placebo-controlled, Phase 1, first-in-human study to characterize the pharmacokinetics of single and multiple ascending doses of RVT-1201 in healthy subjects. RVT-1201 and KAR5417 plasma concentration data on Day 1, 7 and 14 of 400 mg BID administration in fed subjects were used to support verification of the PBPK model. In addition, multiple dose RVT-1201 and KAR5417 plasma concentration data on Day 1, 7 and 14 of 400 mg or 800 mg BID administration in fed subjects in Clinical Study RVT-1201-1001 were also used to support model verification.

CYP2C19, sequence (P33261 whole entry): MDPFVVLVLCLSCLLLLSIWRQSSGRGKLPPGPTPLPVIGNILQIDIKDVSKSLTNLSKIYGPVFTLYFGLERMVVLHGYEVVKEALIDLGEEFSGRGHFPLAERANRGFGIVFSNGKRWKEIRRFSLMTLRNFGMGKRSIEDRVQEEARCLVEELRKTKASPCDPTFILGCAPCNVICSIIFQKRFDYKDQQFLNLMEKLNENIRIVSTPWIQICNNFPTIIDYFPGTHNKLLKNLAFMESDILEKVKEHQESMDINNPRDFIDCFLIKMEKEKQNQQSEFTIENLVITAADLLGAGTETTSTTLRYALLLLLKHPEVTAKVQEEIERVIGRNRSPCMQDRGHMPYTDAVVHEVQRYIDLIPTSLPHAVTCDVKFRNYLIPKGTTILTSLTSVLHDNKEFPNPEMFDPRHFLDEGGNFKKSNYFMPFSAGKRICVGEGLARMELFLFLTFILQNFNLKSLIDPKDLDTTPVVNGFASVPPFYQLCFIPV

| Highest induction of CYP3A4 by an individual donor (CYP3A4) [%] | Induction of CYP3A4 mRNA, mean±SD relative to control (CYP3A4) [%] | Inducer classification, CYP3A4 (CYP3A4) | In vitro induction parameter Emax, CYP3A4 (CYP3A4) | EC50 (CYP3A4) [µM] | Calculated R3 Value, CYP3A4 (CYP3A4) | Highest induction of CYP2B6 by an individual donor (CYP2B6) [%] | Induction of CYP2B6 mRNA, mean±SD relative to control (CYP2B6) [%] | Inducer classification, CYP2B6 (CYP2B6) | In vitro induction parameter Emax, CYP2B6 (CYP2B6) | EC50 (CYP2B6) [µM] | Calculated R3 Value, CYP2B6 (CYP2B6) | Inducer classification, CYP1A2 (CYP1A2) | Unbound Cmax [1] [nM] | Predicted mean maximum plasma concentration (Cmax) [1] [ng/mL] | Cmax [1] [nM] | other results | SMILES |
| --- | --- | --- | --- | --- | --- | --- | --- | --- | --- | --- | --- | --- | --- | --- | --- | --- | --- |
| 13.3 | 7.1±6.41 | potential weak inducers | 4.53 | 15.6 | 0.925 | 60.1 | 16.2±20.0 | potentially weak to moderate inducers | 3.1 | 6.16 | 0.960 | not considered inducers | 2.5 | 149 | 252 | IC50 (CYP2C19; human liver microsomes, read-out: In vitro IC50, direct inhibition, CYP2C19): > 30 µM; Calculated R3 Value, CYP3A4 (CYP3A4; listed as rodatristat ethyl): 0.478; half-life ([2]; human, plasma, oral, 400 mg BID dosing, read-out: Average geometric mean plasma terminal t1/2 (converted)): 5.2 h; Geometric mean apparent clearance ([2]; oral, Regimen C (400 mg single dose, fed)): 900 L/h; Median time to peak plasma levels ([2]; oral, fed state, healthy subjects): 2.5 h; Accumulation after multiple dosing ([2]; twice daily schedule, up to 600 mg BID, expected): < 1.5 fold | CCOC(=O)[C@@H]1CC2(CCN(c3cc(O[C@H](c4ccc(Cl)cc4-c4ccccc4)C(F)(F)F)nc(N)n3)CC2)CN1 [Rodatristat ethyl, (S)-ethyl 8-(2-amino-6-((R)-1-(5-chloro-[1,1′-biphenyl]-2-yl)-2,2,2-trifluoroethoxy)pyrimidin-4-yl)-2,8-diazaspiro[4.5]decane-3-carboxylate] |
| 23.0 | 10.3±11.9 | potential weak inducers | 4.5 | 26.7 | 0.476 | 57.4 | 15.0±17.9 | potentially weak to moderate inducers | 2.95 | 5.6 | 0.766 | not considered inducers | 20 | 1130 | 2010 | Direct inhibition of CYP2C19 (in words) (CYP2C19): did not inhibit; Unbound Cmax ([1]; listed as rodatristat): 20.1 nM; Cmax greater than the Cmax of RVT-1201 ([2]; Regimen C, 400 mg single dose of RVT-1201): approximately 5 fold; half-life ([2]; male, human, plasma, 400 mg, after oral RVT-1201, Regimen C, read-out: Geometric mean plasma terminal t1/2 (converted)): 12.3 h; Cmax ([2]; male, human, plasma, oral, Regimen C, 400 mg single dose of RVT-1201, read-out: Geometric mean Cmax): 517 ng/mL; Tmax ([2]; male, human, plasma, oral, Regimen C, 400 mg single dose of RVT-1201, read-out: Median Tmax): 3.5 h | Nc1nc(O[C@H](c2ccc(Cl)cc2-c2ccccc2)C(F)(F)F)cc(N2CCC3(CC2)CN[C@H](C(=O)O)C3)n1 [Rodatristat, (S)-8-(2-amino-6-((R)-1-(5-chloro-[1,1′-biphenyl]-2-yl)-2,2,2-trifluoroeth-oxy)pyrimidin-4-yl)-2,8-diazaspiro[4.5]decane-3-carboxylic acid] |
